Source: publication PMC6891475, “Synthesis and Antiproliferative Evaluation of Novel Hybrids of Dehydroabietic Acid Bearing 1,2,3-Triazole Moiety” (Molecules, 2019)

Columns and labels:
[1] = tested on: human nasopharyngeal carcinoma cell (CNE-2); test: MTT antiproliferative assay, CNE-2; assay type: cell-based
Protocol: (§1) The antiproliferative activities of the 16 library members were tested against four human cancer cell lines including human nasopharyngeal carcinoma cell (CNE-2), human liver cancer cell (HepG2), human hepatocellular carcinoma cell (BEL-7402), human cervical cancer cells (HeLa), and human normal liver cell (HL-7702) using MTT assay according the reported literature method.
(§2) All the compounds (3a–p) were evaluated for their in vitro cytotoxicity against the following human cancer cell lines including CNE-2, HepG2, BEL-7402, Hela and normal liver cell HL-7702 by MTT assay. The cell lines were plated in 96-well plates at density of 5×10^3 cells/well and maintained at 37 °C with 5% CO2. The target compounds 3a–p dissolved in DMSO and further dilutions were made with DMEM, with cisplatin as the positive control. The concentration of the compounds used were 0.8, 4, 20, 100 μM. After the treatment of another 48 h and 72 h with different concentration of the samples (0.8, 4, 20, 100 μM), Therewith, 20 μL of MTT (5 mg/mL) was added and incubated for about 4 h. The medium was thrown away and the purple formazan precipitations were dissolved in 150 μL DMSO. The O. D. Value was measured at 490 nm in an enzyme labeling instrument.

[2] = tested on: human liver cancer cell (HepG2); test: MTT antiproliferative assay, HepG2; assay type: cell-based
Protocol: as §1, §2

[3] = tested on: human hepatocellular carcinoma cell (BEL-7402); test: MTT antiproliferative assay, BEL-7402; assay type: cell-based
Protocol: as §1, §2

[4] = tested on: human cervical cancer cells (HeLa); test: MTT antiproliferative assay, HeLa; assay type: cell-based; conditions: mean ± SD from three independent experiments
Protocol: as §1, §2

[5] = tested on: human normal liver cell (HL-7702); test: MTT cytotoxicity assay, HL-7702 normal cells; assay type: cell-based; conditions: for IC50: mean ± SD from three independent experiments; for cytotoxicity on the human normal liver cell (HL-7702), in words: qualitative statement
Protocol: as §1, §2

[6] = mean ± SD from three independent experiments
[7] = Homo sapiens, CNE-2, mean ± SD from three independent experiments
[8] = Homo sapiens, HepG2, mean ± SD from three independent experiments
[9] = Homo sapiens, Bel-7402, mean ± SD from three independent experiments
[10] = Homo sapiens, L02, normal liver cell

| Structure (SMILES) | IC50 [1, 6] | IC50 [2, 6] | IC50 [3, 6] | IC50 [4] | IC50 ([5]; normal liver cell) | IC50 [1, 7] | IC50 [2, 8] | IC50 [3, 9] | IC50 ([4]; Homo sapiens) | IC50 [5, 10] | melting point | cytotoxicity on the human normal liver cell (HL-7702), in words [5] |
| --- | --- | --- | --- | --- | --- | --- | --- | --- | --- | --- | --- | --- |
| N.N.[Cl][Pt][Cl] [Cisplatin, cisplatin, reference compound] | 8.75 ± 0.24 µM | 6.42 ± 0.18 µM | 12.7 ± 0.33 µM | 1.94 ± 0.2 µM | 20.8 ± 0.83 µM | – | – | – | – | – | – | – |
| CC(C)c1ccc2c(c1)CCC1[C@](C)(C(=O)OCc3cn(Cc4ccccc4)nn3)CCC[C@]21C (stereo partly shown) [Compound 3a, (1-benzyl-1H-1,2,3-triazole-4-yl)dehydroabietic acid methyl ester] | – | – | – | – | – | 33.4 ± 0.33 µM | > 100 µM | 36.4 ± 70 µM | 67.88 ± 0.56 µM | > 100 µM | 181 to 183.4 °C | – |
| CC(C)c1ccc2c(c1)CCC1[C@](C)(C(=O)OCc3cn(Cc4ccccc4F)nn3)CCC[C@]21C (stereo partly shown) [Compound 3b, [1-(2-fluorobenzyl)-1H-1,2,3-triazole-4-yl]dehydroabietic acid methyl ester] | – | – | – | – | – | 21.4 ± 0.52 µM | 25.9 ± 0.27 µM | 18.6 ± 0.82 µM | 17.8 ± 0.31 µM | > 100 µM | 122.4 to 125.8 °C | – |
| CC(C)c1ccc2c(c1)CCC1[C@](C)(C(=O)OCc3cn(Cc4cccc(F)c4)nn3)CCC[C@]21C (stereo partly shown) [Compound 3c, [1-(3-fluorobenzyl)-1H-1,2,3-triazole-4-yl]dehydroabietic acid methyl ester] | – | – | – | – | – | 10.9 ± 0.21 µM | 5.9 ± 0.41 µM | 16.72 ± 0.06 µM | 20.1 ± 0.54 µM | > 100 µM | 175.7 to 178.3 °C | lower cytotoxicity |
| CC(C)c1ccc2c(c1)CCC1[C@](C)(C(=O)OCc3cn(Cc4ccc(F)cc4)nn3)CCC[C@]21C (stereo partly shown) [Compound 3d, [1-(4-fluorobenzyl)-1H-1,2,3-triazole-4-yl]dehydroabietic acid methyl ester] | – | – | – | – | – | 12.2 ± 0.33 µM | 20.6 ± 0.09 µM | 14.8 µM | 22.3 ± 0.35 µM | > 100 µM | 183 to 186.3 °C | – |
| CC(C)c1ccc2c(c1)CCC1[C@](C)(C(=O)OCc3cn(Cc4ccccc4Cl)nn3)CCC[C@]21C (stereo partly shown) [Compound 3e, [1-(2-chlorobenzyl)-1H-1,2,3-triazole-4-yl]dehydroabietic acid methyl ester] | – | – | – | – | – | 74.88 ± 0.14 µM | 45.08 ± 0.33 µM | 25.1 ± 0.32 µM | 44.28 ± 0.43 µM | > 100 µM | 80.6 to 84.3 °C | – |
| CC(C)c1ccc2c(c1)CCC1[C@](C)(C(=O)OCc3cn(Cc4cccc(Cl)c4)nn3)CCC[C@]21C (stereo partly shown) [Compound 3f, [1-(3-chlorobenzyl)-1H-1,2,3-triazole-4-yl]dehydroabietic acid methyl ester] | – | – | – | – | – | 59.03 ± 0.28 µM | 22.3 ± 0.35 µM | 26.09 ± 0.15 µM | 53.78 ± 0.32 µM | > 100 µM | 153.2 to 155.5 °C | – |
| CC(C)c1ccc2c(c1)CCC1[C@](C)(C(=O)OCc3cn(Cc4ccc(Cl)cc4)nn3)CCC[C@]21C (stereo partly shown) [Compound 3g, [1-(4-chlorobenzyl)-1H-1,2,3-triazole-4-yl]dehydroabietic acid methyl ester] | – | – | – | – | – | 60.7 ± 66 µM | > 100 µM | 38 ± 0.48 µM | > 100 µM | > 100 µM | 176.9 to 179.2 °C | – |
| CC(C)c1ccc2c(c1)CCC1[C@](C)(C(=O)OCc3cn(Cc4ccccc4Br)nn3)CCC[C@]21C (stereo partly shown) [Compound 3h, [1-(2-bromobenzyl)-1H-1,2,3-triazole-4-yl]dehydroabietic acid methyl ester] | – | – | – | – | – | 48.3 ± 0.27 µM | 35.42 ± 0.21 µM | 27.3 ± 0.36 µM | 25.9 ± 0.2 µM | > 100 µM | 95.1 to 97.3 °C | – |
| CC(C)c1ccc2c(c1)CCC1[C@](C)(C(=O)OCc3cn(Cc4cccc(Br)c4)nn3)CCC[C@]21C (stereo partly shown) [Compound 3i, [1-(3-bromobenzyl)-1H-1,2,3-triazole-4-yl]dehydroabietic acid methyl ester] | – | – | – | – | – | 44.14 ± 0.22 µM | 40.7 ± 0.62 µM | 36.88 ± 0.23 µM | 56.08 ± 0.36 µM | > 100 µM | 146.1 to 148 °C | – |
| CC(C)c1ccc2c(c1)CCC1[C@](C)(C(=O)OCc3cn(Cc4ccc(Br)cc4)nn3)CCC[C@]21C (stereo partly shown) [Compound 3j, [1-(4-bromobenzyl)-1H-1,2,3-triazole-4-yl]dehydroabietic acid methyl ester] | – | – | – | – | – | > 100 µM | 23.4 ± 0.32 µM | 14.5 ± 0.62 µM | 43.18 ± 0.22 µM | > 100 µM | 172.5 to 174 °C | – |
| CC(C)c1ccc2c(c1)CCC1[C@](C)(C(=O)OCc3cn(Cc4ccccc4[N+](=O)[O-])nn3)CCC[C@]21C (stereo partly shown) [Compound 3k, [1-(2-nitrobenzyl)-1H-1,2,3-triazole-4-yl]dehydroabietic acid methyl ester] | – | – | – | – | – | 44.9 ± 0.32 µM | 6.25 ± 0.37 µM | 18.6 ± 0.26 µM | > 100 µM | > 100 µM | 119.7 to 122.2 °C | lower cytotoxicity |
| CC(C)c1ccc2c(c1)CCC1[C@](C)(C(=O)OCc3cn(Cc4cccc([N+](=O)[O-])c4)nn3)CCC[C@]21C (stereo partly shown) [Compound 3l, [1-(3-nitrobenzyl)-1H-1,2,3-triazole-4-yl]dehydroabietic acid methyl ester] | – | – | – | – | – | 11.5 ± 0.18 µM | 15.8 ± 0.64 µM | 15.4 ± 0.51 µM | 67.37 ± 0.33 µM | > 100 µM | 128.5 to 132.3 °C | – |
| CC(C)c1ccc2c(c1)CCC1[C@](C)(C(=O)OCc3cn(Cc4ccc([N+](=O)[O-])cc4)nn3)CCC[C@]21C (stereo partly shown) [Compound 3m, [1-(4-nitrobenzyl)-1H-1,2,3-triazole-4-yl]dehydroabietic acid methyl ester] | – | – | – | – | – | 19.6 ± 0.38 µM | > 100 µM | 22.81 ± 0.22 µM | 22.5 ± 0.35 µM | > 100 µM | 173.9 to 176.7 °C | – |
| Cc1cccc(Cn2cc(COC(=O)[C@]3(C)CCC[C@]4(C)c5ccc(C(C)C)cc5CCC34)nn2)c1 (stereo partly shown) [Compound 3n, [1-(3-methylbenzyl)-1H-1,2,3-triazole-4-yl]dehydroabietic acid methyl ester] | – | – | – | – | – | > 100 µM | 60.18 ± 0.39 µM | 23.6 ± 0.44 µM | 25.3 ± 0.81 µM | > 100 µM | 130.7 to 132.8 °C | – |
| Cc1ccc(Cn2cc(COC(=O)[C@]3(C)CCC[C@]4(C)c5ccc(C(C)C)cc5CCC34)nn2)cc1 (stereo partly shown) [Compound 3o, [1-(4-methylbenzyl)-1H-1,2,3-triazole-4-yl]dehydroabietic acid methyl ester] | – | – | – | – | – | > 100 µM | 51.78 ± 0.43 µM | 41.9 ± 0.72 µM | 42.51 ± 0.37 µM | > 100 µM | 160.4 to 162 °C | – |
| COc1cccc(Cn2cc(COC(=O)[C@]3(C)CCC[C@]4(C)c5ccc(C(C)C)cc5CCC34)nn2)c1 (stereo partly shown) [Compound 3p, [1-(3-methoxybenzyl)-1H-1,2,3-triazole-4-yl]dehydroabietic acid methyl ester] | – | – | – | – | – | 80.98 ± 0.78 µM | > 100 µM | 25.03 ± 0.22 µM | 24.66 ± 0.16 µM | > 100 µM | 106.5 to 108 °C | – |
| CC(C)c1ccc2c(c1)CC[C@H]1[C@](C)(C(=O)O)CCC[C@]21C [DHAA, dehydroabietic acid] | – | – | – | – | – | – | 80.4 ± 0.84 µM | – | 37.4 ± 0.64 µM | > 100 µM | – | – |
